Key:
DU145 [1] = assay: WST-1 cell proliferation assay on DU145; type: cell-based; conditions: for activity at 10 µM: Homo sapiens, DU-145, 72 h, percent of untreated control cells, read-out: Remaining cell proliferation (%) DU145; for Difference in cell proliferation @ 10 μM (%) (Selectivity) Δ LNCaP − DU145: LNCaP minus DU145
Method: (§1) The functional activity of the example compounds in comparison to galiellalactone was evaluated using a WST-1 proliferation assay (J. Biol. Chem. 2014, 289:15969-15978) on DU145, LNCaP or IL-6 stimulated LNCaP.
(§2) The cells were cultured in 96-well plates (2000 cells/well in 200 μl of medium) and allowed to set for 24 h. The cells were treated with 10 μM of an example compound or galiellalactone for 72 h. Samples were made in triplicate. 20 μl WST-1 solution (Roche Applied Science) was added per well and incubated at 37° C. for 4 h. The absorbance of each well was measured using a scanning multi-well spectrophotometer, ELISA reader at a wavelength of 450 nm and reference wavelength of 690 nm. The results presented in Tables 2 and 3 below are presented as percent of untreated control cells.

LNCaP = assay: WST-1 cell proliferation assay on LNCaP; type: cell-based; conditions: Homo sapiens, 72 h, percent of untreated control cells, read-out: Remaining cell proliferation (%) LNCaP
Method: as §1, §2

LNCaP-IL6 [2] = assay: WST-1 cell proliferation assay on IL-6 stimulated LNCaP; type: cell-based; conditions: for activity at 10 µM: Homo sapiens, LNCaP, 72 h, percent of untreated control cells, read-out: Remaining cell proliferation (%) LNCaP-IL6; for Difference in cell proliferation @ 10 μM (%) (Selectivity) Δ LNCaP − LNCaPIL6: LNCaP minus LNCaP-IL6
Method: as §1, §2

STAT1 = STAT1 luciferase reporter gene assay in HeLa cells stimulated with IFNg; type: cell-based; conditions: Homo sapiens, M-HeLa, IFNg overnight
Method: In order to further asses the properties of the ether analogues of galiellalactone, the STAT1 activity was determined for some of the novel analogues.

DU145 [3] = assay: WST-1 cell proliferation assay on DU145; type: cell-based; conditions: for IC50: Homo sapiens, DU-145, dose response study, DU145
LNCaP-IL6 [4] = assay: WST-1 cell proliferation assay on IL-6 stimulated LNCaP; type: cell-based; conditions: Homo sapiens, dose response study
[5] = Comparative pharmacokinetic study, single oral dose, plasma by LC-MS/MS; type: in vivo; conditions: mouse, CD1 mice, single oral gavage 10 mg/kg
Method: A pharmacokinetic study was performed in CD1 mice to establish plasma exposure following administration of single oral doses of galiellalactone and example 20. Sample analysis was by LC-MS/MS.
Dose solutions were prepared at a drug concentration of 0.5 mg/mL in 5% DMSO in 50 mM citrate buffer (citric acid/sodium citrate pH 4.0) and administered as a 20 mL/kg oral gavage (10 mg/kg).
AUC denotes the plasma exposure of the compound measured with time. More specifically, AUC 0-t is the area under the plasma drug concentration/time curve from 0 minutes to last quantifiable data point. AUC 0-∞ is the area under the plasma drug concentration/time curve from 0 minutes extrapolated to infinity.

IL-6/STAT3 signaling = conditions: cited from earlier work

Structure (SMILES) | activity at 10 µM (DU145 [1]) [%] | Difference in cell proliferation @ 10 μM (%) (Selectivity) Δ LNCaP − DU145 (DU145 [1]) | activity at 10 µM (LNCaP) [%] | activity at 10 µM (LNCaP-IL6 [2]) [%] | Difference in cell proliferation @ 10 μM (%) (Selectivity) Δ LNCaP − LNCaPIL6 (LNCaP-IL6 [2]) | inhibition at 10 µM (STAT1) [%] | Selectivity at IC90 against DU145 and LNCaP-IL6 cell proliferation over LNCaP proliferation (DU145 [3]; FIG. 1B dose response curves) | IC50 (DU145 [3]) [nM] | IC50 (LNCaP-IL6 [4]) [nM] | AUC(0-t) ([5]; 0 min to last quantifiable data point) [ng·h/mL] | AUC(0-inf) ([5]; extrapolated to infinity) [ng·h/mL] | half-life ([5]; read-out: Apparent half-life (converted)) [h] | Inhibition of IL-6/STAT3 signaling (IL-6/STAT3 signaling)
Cc1ccc(COC23C4=CC(C)CC2CCC3OC4=O)cn1 (stereo in doubt) [Example 1, (4R,5aS,7aS,7bR)-5,5a,6,7,7a,7b-hexahydro-7b-[(6-methyl-3-pyridinyl)methoxy]-4-methyl-indeno[1,7-bc]furan-2(4H)-one] | 12.9 | 50.3 | 63.2 | 8.6 | 54.6 | 14 |  |  |  |  |  |  | 
CC1C=C2C(=O)OC3CCC(C1)C23OCc1ccc(Oc2ccccc2)nc1 (stereo in doubt) [Example 2, (4R,5aS,7aS,7bR)-5,5a,6,7,7a,7b-hexahydro-7b-[(6-phenoxy-3-pyridinyl)methoxy]-4-methyl-indeno[1,7-bc]furan-2(4H)-one] | 36.1 | 49.9 | 86 | 18 | 68 | 1 |  |  |  |  |  |  | 
CC1C=C2C(=O)OC3CCC(C1)C23OCCc1cccnc1 (stereo in doubt) [Example 3, (4R,5aS,7aS,7bR)-5,5a,6,7,7a,7b-hexahydro-7b-[2-(3-pyridinyl)-ethoxy]-4-methyl-indeno[1,7-bc]furan-2(4H)-one] | 18.7 | 49.9 | 68.6 | 8 | 60.6 | 38 |  |  |  |  |  |  | 
Cc1cnc(COC23C4=CC(C)CC2CCC3OC4=O)cn1 (stereo in doubt) [Example 4, (4R,5aS,7aS,7bR)-5,5a,6,7,7a,7b-hexahydro-7b-[(5-methyl-2-pyrazinyl)methoxy]-4-methyl-indeno[1,7-bc]furan-2(4H)-one] | 11.4 | 44.1 | 55.5 | 10.7 | 44.8 | 12 |  |  |  |  |  |  | 
COc1ccnc(COC23C4=CC(C)CC2CCC3OC4=O)c1 (stereo in doubt) [Example 5, (4R,5aS,7aS,7bR)-5,5a,6,7,7a,7b-hexahydro-7b-[(4-methoxy-2-pyridinyl)methoxy]-4-methyl-indeno[1,7-bc]furan-2(4H)-one] | 19 | 67 | 86 | 15 | 71 | 16 |  |  |  |  |  |  | 
COC(=O)c1cccc(COC23C4=CC(C)CC2CCC3OC4=O)n1 (stereo in doubt) [Example 6, (4R,5aS,7aS,7bR)-5,5a,6,7,7a,7b-hexahydro-7b-[(6-methoxycarbonyl-2-pyridinyl)methoxy]-4-methyl-indeno[1,7-bc]furan-2(4H)-one] | 16.6 | 49 | 65.6 | 15.9 | 49.7 |  |  |  |  |  |  |  | 
COc1ncccc1COC12C3=CC(C)CC1CCC2OC3=O (stereo in doubt) [Example 7, (4R,5aS,7aS,7bR)-5,5a,6,7,7a,7b-hexahydro-7b-[(2-methoxy-3-pyridinyl)methoxy]-4-methyl-indeno[1,7-bc]furan-2(4H)-one] | 16.7 | 42.6 | 59.3 | 7 | 52.3 |  |  |  |  |  |  |  | 
Cc1ncccc1COC12C3=CC(C)CC1CCC2OC3=O (stereo in doubt) [Example 8, (4R,5aS,7aS,7bR)-5,5a,6,7,7a,7b-hexahydro-7b-[(2-methyl-3-pyridinyl)methoxy]-4-methyl-indeno[1,7-bc]furan-2(4H)-one] | 10 | 44.5 | 54.5 | 3 | 51.5 |  |  |  |  |  |  |  | 
Cc1ccc(COC23C4=CC(C)(F)CC2CCC3OC4=O)cn1 (stereo in doubt) [Example 26, (4R,5aS,7aS,7bR)-5,5a,6,7,7a,7b-hexahydro-7b-[(6-methyl-3-pyridinyl)methoxy]-4-fluoro-4-methyl-indeno[1,7-bc]furan-2(4H)-one] |  |  |  |  |  |  | very good selectivity | 1530 | 1060 |  |  |  | 
C[C@@H]1C=C2C(=O)O[C@@H]3CCC(C1)[C@]23OCc1ccc(NC(=O)C(C)(C)C)nc1 (stereo partly drawn) [Example 9, (4R,5aS,7aS,7bR)-5,5a,6,7,7a,7b-hexahydro-7b-[(6-[(2,2-dimethyl-1-oxopropyl)amino]-3-pyridinyl]methoxy]-4-methyl-indeno[1,7-b]c furan-2(4H)-one] | 9.7 | 57.9 | 67.6 | 2.8 | 64.8 |  |  |  |  |  |  |  | 
C[C@@H]1C=C2C(=O)O[C@@H]3CCC(C1)[C@]23OCc1ccc(N2CCOCC2)nc1 (stereo partly drawn) [Example 15, (4R,5aS,7aS,7bR)-5,5a,6,7,7a,7b-hexahydro-7b-[(6-(N-morpholino)-3-pyridinyl)methoxy]-4-methyl-indeno[1,7-bc]furan-2(4H)-one] | 9.6 | 66.6 | 76.1 | 6.5 | 69.6 | 53 |  |  |  |  |  |  | 
C[C@@H]1C=C2C(=O)O[C@@H]3CC[C@H](C1)[C@]23O [Galiellalactone, (−)-Galiellalactone] | 10.8 | 32.8 | 43.6 | 4.7 | 38.9 | 62 |  | 2520 | 1160 | 82 | 87 | 1.2 | submicromolar

From patent US10351577B2, “Ether analogues of galiellalactone” (Glactone Pharma Development AB, priority 2015, dated 2019)
